Tests used:
bacterial = format: cell-based
Source text: Mavacamten was not genotoxic in a bacterial reverse mutation test (Ames test), a human in vitro lymphocyte […] assay, or a rat in vivo micronucleus assay.

BSEP = BSEP (Homo sapiens, UniProt O95342); test: In vitro transporter inhibition; format: in vitro ADME
[1] = system: organic cation transporters (OCTs); test: In vitro transporter inhibition; format: in vitro ADME
Solubility = format: physicochemical
[2] = system: organic anion transporters (OATs); test: In vitro transporter inhibition; format: in vitro ADME
CYP2D6 = CYP2D6 (Homo sapiens, UniProt P10635); test: In vitro CYP inhibition; format: in vitro ADME; details: at clinically relevant concentrations
Source text: (§1) Mavacamten is a CYP2B6 inducer.

CYP1A2 = CYP1A2 (Homo sapiens, UniProt P05177); test: In vitro CYP inhibition; format: in vitro ADME
Source text: as §1

CYP2C19 = CYP2C19 (Homo sapiens, UniProt P33261); test: In vitro CYP inhibition; format: in vitro ADME; details: at clinically relevant concentrations
Source text: as §1

CYP2C8 = CYP2C8 (Homo sapiens, UniProt P10632); test: In vitro CYP inhibition; format: in vitro ADME
Source text: as §1

CYP3A4 [3] = molecular target: T1, CYP3A4 (Homo sapiens, UniProt P08684); test: In vitro CYP inhibition; format: in vitro ADME; details: at clinically relevant concentrations
Source text: as §1

CYP2C9 = CYP2C9 (Homo sapiens, UniProt P11712); test: In vitro CYP inhibition; format: in vitro ADME; details: at clinically relevant concentrations
Source text: as §1

CYP2B6 = test: In vitro CYP induction; format: in vitro ADME
Source text: as §1

[4] = system: organic anion transporting polypeptides (OATPs); test: In vitro transporter inhibition; format: in vitro ADME
rasH2 transgenic mouse = test: 6-month rasH2 transgenic mouse carcinogenicity study; format: in vivo
P-gp = P-gp (Homo sapiens, UniProt P08183); test: In vitro transporter inhibition; format: in vitro ADME
[5] = system: adults with symptomatic NYHA class II and III obstructive HCM; test: EXPLORER-HCM Phase 3, double-blind, randomized, placebo-controlled trial; format: in vivo, human
Protocol: The safety of MAVACAMTEN was evaluated in EXPLORER-HCM, a Phase 3, double-blind, randomized, placebo-controlled trial. Of the 251 adults with obstructive HCM, 123 patients were treated with MAVACAMTEN 2.5-15 mg daily and 128 were treated with placebo.
The efficacy of MAVACAMTEN was evaluated in EXPLORER-HCM (NCT-03470545) a Phase 3, double-blind, randomized, placebo-controlled, multicenter, international, parallel-group trial in 251 adults with symptomatic NYHA class II and III obstructive HCM, LVEF ≥55%, and Valsalva LVOT peak gradient ≥50 mmHg at rest or with provocation.
Patients on dual therapy with beta blocker and calcium channel blocker treatment or monotherapy with disopyramide or ranolazine were excluded. Patients with a known infiltrative or storage disorder causing cardiac hypertrophy that mimicked obstructive HCM, such as Fabry disease, amyloidosis, or Noonan syndrome with left ventricular hypertrophy, were also excluded.
Patients were randomized in a 1:1 ratio to receive either a starting dose of 5 mg of MAVACAMTEN or placebo once daily for 30 weeks. Treatment assignment was stratified by baseline NYHA functional class, baseline use of beta blockers, and type of ergometer (treadmill or exercise bicycle).
All patients were initiated on MAVACAMTEN 5 mg (or matching placebo) once daily, and the dose was periodically adjusted to optimize patient response (decrease in LVOT gradient with Valsalva maneuver) and maintain LVEF ≥50%. The dose was also informed by plasma concentrations of MAVACAMTEN.
The primary composite functional endpoint, assessed at 30 weeks, was defined as the proportion of patients who achieved either improvement of […] (pVO2) by ≥1.5 mL/kg/min plus improvement in NYHA class by at least 1 or improvement of pVO2 by ≥3.0 mL/kg/min plus no worsening in NYHA class.
The treatment effects of MAVACAMTEN on LVOT obstruction, functional capacity, and health status were assessed by change from baseline through Week 30 in post-exercise LVOT peak gradient, change in pVO2, proportion of patients with improvement in NYHA class, Kansas City Cardiomyopathy Questionnaire-23 (KCCQ-23) Clinical Summary Score (CSS), and Hypertrophic Cardiomyopathy Symptom Questionnaire (HCMSQ) Shortness of Breath (SoB) domain score.
Missing data were not imputed to summarize the baseline and change from baseline to Week 30 values. Difference in mean change from baseline between treatment groups was estimated using a mixed model for repeated measures.

CYP3A4 [6] = molecular target: T1, CYP3A4; test: Clinical DDI with moderate CYP3A4 inhibitor verapamil; format: in vivo; set-up: host or cells: in silico (Simcyp v19 where stated); details: mavacamten 25 mg with verapamil sustained release 240 mg; CYP2C19 IMs and NMs

T1 sequence (P08684 whole entry): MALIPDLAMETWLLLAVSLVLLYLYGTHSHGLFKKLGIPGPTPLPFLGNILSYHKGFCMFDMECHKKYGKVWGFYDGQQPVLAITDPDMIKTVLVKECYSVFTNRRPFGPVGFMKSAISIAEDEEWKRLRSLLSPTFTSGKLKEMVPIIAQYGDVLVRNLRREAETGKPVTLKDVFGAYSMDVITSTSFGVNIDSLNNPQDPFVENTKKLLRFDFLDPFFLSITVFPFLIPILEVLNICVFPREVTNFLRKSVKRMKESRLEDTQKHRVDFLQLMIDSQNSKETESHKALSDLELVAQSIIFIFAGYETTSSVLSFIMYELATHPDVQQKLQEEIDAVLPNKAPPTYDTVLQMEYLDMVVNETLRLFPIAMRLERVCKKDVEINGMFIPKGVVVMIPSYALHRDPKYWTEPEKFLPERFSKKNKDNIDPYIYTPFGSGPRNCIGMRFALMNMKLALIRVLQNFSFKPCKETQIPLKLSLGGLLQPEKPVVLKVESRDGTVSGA
Sequence of CYP2C8 (P10632 whole entry): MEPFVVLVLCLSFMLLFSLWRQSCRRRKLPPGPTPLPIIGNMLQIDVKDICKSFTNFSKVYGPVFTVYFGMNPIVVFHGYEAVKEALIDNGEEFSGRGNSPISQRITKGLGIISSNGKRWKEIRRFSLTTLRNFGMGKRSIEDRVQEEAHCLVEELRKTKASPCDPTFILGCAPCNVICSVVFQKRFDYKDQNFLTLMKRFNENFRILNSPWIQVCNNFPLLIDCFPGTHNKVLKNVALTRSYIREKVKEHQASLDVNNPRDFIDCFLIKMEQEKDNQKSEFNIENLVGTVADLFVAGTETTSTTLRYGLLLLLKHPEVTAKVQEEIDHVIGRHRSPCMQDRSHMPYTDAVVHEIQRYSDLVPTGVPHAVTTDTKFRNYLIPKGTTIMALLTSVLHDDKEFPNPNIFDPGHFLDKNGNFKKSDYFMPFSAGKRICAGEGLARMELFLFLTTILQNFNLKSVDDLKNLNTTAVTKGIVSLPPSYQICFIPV
Sequence of CYP2C19 (P33261 whole entry): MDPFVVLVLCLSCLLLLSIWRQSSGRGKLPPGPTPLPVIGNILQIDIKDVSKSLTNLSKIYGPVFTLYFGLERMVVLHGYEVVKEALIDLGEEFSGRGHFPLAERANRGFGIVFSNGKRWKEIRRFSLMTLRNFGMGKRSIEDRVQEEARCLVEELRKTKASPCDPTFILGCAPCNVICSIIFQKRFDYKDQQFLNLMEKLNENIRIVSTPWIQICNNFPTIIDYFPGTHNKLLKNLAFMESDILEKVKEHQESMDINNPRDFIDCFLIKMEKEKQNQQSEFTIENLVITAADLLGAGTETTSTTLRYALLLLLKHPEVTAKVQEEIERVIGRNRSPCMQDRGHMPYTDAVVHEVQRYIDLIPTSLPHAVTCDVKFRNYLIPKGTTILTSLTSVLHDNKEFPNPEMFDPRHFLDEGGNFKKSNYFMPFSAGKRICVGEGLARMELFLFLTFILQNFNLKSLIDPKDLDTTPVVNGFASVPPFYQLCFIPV
Sequence of CYP2C9 (P11712 whole entry): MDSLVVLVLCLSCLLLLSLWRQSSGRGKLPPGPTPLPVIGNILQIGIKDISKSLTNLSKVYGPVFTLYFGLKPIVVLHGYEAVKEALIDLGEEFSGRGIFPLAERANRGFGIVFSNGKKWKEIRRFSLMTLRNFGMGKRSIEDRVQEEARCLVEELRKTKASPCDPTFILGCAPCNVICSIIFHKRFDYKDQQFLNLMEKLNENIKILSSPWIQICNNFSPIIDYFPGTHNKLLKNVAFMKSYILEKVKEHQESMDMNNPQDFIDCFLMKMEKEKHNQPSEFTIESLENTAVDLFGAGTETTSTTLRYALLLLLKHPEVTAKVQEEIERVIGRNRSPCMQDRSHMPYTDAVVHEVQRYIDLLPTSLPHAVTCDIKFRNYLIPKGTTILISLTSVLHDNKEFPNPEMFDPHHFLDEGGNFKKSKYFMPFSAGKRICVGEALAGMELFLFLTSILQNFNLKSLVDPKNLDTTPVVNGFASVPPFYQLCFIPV
Sequence of P-gp (P08183 whole entry): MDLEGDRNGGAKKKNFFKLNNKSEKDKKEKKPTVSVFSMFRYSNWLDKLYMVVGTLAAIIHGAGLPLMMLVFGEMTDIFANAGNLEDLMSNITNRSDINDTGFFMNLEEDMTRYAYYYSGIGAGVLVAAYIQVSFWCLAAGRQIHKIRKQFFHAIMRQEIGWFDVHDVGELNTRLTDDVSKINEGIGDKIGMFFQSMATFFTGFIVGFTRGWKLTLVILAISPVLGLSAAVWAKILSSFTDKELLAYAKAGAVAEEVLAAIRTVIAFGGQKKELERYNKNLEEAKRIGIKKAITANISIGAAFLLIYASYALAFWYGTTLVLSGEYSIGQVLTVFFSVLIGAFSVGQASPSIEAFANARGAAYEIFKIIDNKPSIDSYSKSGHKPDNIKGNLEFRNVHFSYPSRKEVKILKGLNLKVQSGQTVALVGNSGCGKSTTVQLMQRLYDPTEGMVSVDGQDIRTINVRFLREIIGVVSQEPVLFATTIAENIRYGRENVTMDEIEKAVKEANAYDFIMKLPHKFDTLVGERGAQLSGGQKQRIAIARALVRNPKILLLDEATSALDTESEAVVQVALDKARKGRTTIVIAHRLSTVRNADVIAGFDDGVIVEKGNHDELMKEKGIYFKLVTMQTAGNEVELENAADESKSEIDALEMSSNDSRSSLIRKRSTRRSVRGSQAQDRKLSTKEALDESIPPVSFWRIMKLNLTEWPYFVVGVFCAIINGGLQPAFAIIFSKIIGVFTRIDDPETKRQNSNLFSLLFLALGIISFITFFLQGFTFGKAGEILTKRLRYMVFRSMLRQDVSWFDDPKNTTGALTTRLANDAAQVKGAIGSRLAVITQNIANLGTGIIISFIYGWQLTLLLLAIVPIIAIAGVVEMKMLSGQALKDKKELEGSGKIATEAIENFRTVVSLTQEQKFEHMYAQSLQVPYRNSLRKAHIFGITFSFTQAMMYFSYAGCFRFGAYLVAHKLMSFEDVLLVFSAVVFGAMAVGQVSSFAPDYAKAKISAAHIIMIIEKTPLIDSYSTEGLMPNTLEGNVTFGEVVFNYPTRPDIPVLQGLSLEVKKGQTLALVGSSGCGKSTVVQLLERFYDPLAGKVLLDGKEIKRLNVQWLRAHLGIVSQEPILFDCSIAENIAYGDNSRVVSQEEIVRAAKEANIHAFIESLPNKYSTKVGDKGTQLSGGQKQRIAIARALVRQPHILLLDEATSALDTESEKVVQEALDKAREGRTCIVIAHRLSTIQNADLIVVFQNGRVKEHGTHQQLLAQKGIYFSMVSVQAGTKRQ
Sequence of CYP2D6 (P10635 whole entry): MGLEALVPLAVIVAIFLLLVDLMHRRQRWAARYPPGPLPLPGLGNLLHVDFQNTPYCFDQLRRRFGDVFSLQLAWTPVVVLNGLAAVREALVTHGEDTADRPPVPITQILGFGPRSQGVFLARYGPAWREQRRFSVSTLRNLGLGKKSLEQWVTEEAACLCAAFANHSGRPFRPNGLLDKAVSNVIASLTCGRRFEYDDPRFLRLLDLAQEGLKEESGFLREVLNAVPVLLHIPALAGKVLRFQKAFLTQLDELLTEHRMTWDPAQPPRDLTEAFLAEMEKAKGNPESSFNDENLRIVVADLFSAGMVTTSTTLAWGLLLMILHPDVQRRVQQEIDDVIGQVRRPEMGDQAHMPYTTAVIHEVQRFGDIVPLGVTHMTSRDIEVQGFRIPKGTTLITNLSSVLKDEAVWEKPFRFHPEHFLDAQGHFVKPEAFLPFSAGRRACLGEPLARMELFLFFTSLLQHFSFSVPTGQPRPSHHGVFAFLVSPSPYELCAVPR
Sequence of CYP1A2 (P05177 whole entry): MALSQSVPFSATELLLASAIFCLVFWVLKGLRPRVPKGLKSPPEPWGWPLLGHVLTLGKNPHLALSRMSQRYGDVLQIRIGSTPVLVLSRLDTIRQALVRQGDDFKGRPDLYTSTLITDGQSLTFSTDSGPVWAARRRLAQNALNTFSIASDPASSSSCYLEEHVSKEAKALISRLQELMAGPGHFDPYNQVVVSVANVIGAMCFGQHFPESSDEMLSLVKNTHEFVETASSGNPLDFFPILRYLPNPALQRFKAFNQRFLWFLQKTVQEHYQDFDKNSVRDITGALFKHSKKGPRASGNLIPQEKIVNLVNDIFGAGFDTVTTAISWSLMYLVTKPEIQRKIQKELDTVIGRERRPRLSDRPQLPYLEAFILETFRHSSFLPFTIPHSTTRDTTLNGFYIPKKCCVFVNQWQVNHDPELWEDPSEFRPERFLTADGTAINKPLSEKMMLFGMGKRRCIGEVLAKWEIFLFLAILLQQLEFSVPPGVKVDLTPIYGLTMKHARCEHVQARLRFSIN

## CC(C)n1c(=O)cc(N[C@@H](C)c2ccccc2)[nH]c1=O [mavacamten, (S)-3-Isopropyl-6-((1-phenylethyl)amino)pyrimidine-2,4(1H,3H)-dione]
bacterial
  Genotoxicity, Ames test: not genotoxic
BSEP
  Inhibition of BSEP: does not inhibit
[1]
  Inhibition of OCTs: does not inhibit
Solubility
  Solubility in DMSO and NMP: freely soluble
  Solubility in methanol and ethanol: sparingly soluble
Solubility; pH 2-10
  Solubility in water and aqueous buffers: practically insoluble
[2]
  Inhibition of OATs: does not inhibit
CYP2D6
  Inhibition of CYP2D6: not an inhibitor
CYP1A2
  Inhibition of CYP1A2: does not inhibit
CYP2C19
  Inhibition of CYP2C19: not an inhibitor
CYP2C8
  Inhibition of CYP2C8: does not inhibit
CYP3A4 [3]
  Inhibition of CYP3A4: not an inhibitor
CYP2C9
  Inhibition of CYP2C9: not an inhibitor
CYP2B6
  Induction of CYP2B6: inducer
[4]
  Inhibition of OATPs: does not inhibit
rasH2 transgenic mouse; 6-month, up to 2.0 mg/kg/day in males and 3.0 mg/kg/day in females
  Carcinogenicity: no evidence of carcinogenicity
rasH2 transgenic mouse; females, 3.0 mg/kg/day
  Exposure (AUC) compared to humans at the MRHD: 3 fold
rasH2 transgenic mouse; males, 2.0 mg/kg/day
  Exposure (AUC) compared to humans at the MRHD: 1.8 fold
P-gp
  Inhibition of P-gp: does not inhibit
[5]; FIG. 17
  Subgroup analysis of the primary composite functional endpoint: consistently favored MAVACAMTEN across all subgroups analyzed
[5]; MAVACAMTEN 2.5-15 mg daily, N=123, placebo 2%
  Adverse reaction: syncope, patients: 6%
[5]; MAVACAMTEN 2.5-15 mg daily, N=123, placebo 18%
  Adverse reaction: dizziness, patients: 27%
[5]; Week 30
  Improvement across secondary endpoints vs placebo: greater improvement compared to the placebo group across all secondary endpoints
  NYHA Class improved ≥1, difference vs placebo: 34%
  Total responders, difference vs placebo (95% CI): 19% (9, 30)
  pVO2 ≥1.5 mL/kg/min and decreased NYHA, difference vs placebo (95% CI): 19% (9, 30)
  pVO2 ≥3 mL/kg/min and NYHA not increased, difference vs placebo (95% CI): 13% (3, 22)
[5]; Week 30, N=123
  Change from baseline pVO2 ≥1.5 mL/kg/min and decreased NYHA, number: 41
  Change from baseline pVO2 ≥3 mL/kg/min and NYHA not increased, number: 29
  Number with NYHA Class improved ≥1: 80
  Primary composite functional endpoint, total responders, number: 45
[5]; Week 30, N=123, placebo 17%
  Primary composite functional endpoint, total responders, percent: 37%
[5]; Week 30, n=99, placebo 4
  KCCQ-23 CSS, change from baseline, mean: 14
[5]; Week 30, n=108, placebo −1
  HCMSQ SoB, change from baseline, mean: −3
[5]; Week 30, placebo 4
  KCCQ-23 PL, change from baseline, mean: 15
[5]; Week 30, placebo 5
  KCCQ-23 TSS, change from baseline, mean: 12
[5]; Week 30, placebo 11%
  Change from baseline pVO2 ≥3 mL/kg/min and NYHA not increased, percent: 23%
[5]; Week 30, placebo 14%
  Change from baseline pVO2 ≥1.5 mL/kg/min and decreased NYHA, percent: 33%
[5]; Week 30, placebo 31%
  Percent with NYHA Class improved ≥1: (65%)
[5]; all 7 patients
  LVEF outcome after interruption in patients with LVEF <50%: LVEF recovered following interruption
[5]; attenuated improvement in pVO2
  Benefit by background beta blocker therapy: smaller in patients on background beta blocker therapy
[5]; baseline to Week 30
  Post-Exercise LVOT gradient, difference vs placebo: −35 mmHg
  pVO2, difference vs placebo: 1.4 mL/kg/min
[5]; baseline to Week 30, placebo −0.1
  Change in pVO2, mean: 1.4 mL/kg/min
[5]; baseline to Week 30, placebo −10
  Change in Post-Exercise LVOT gradient, mean: −47 mmHg
[5]; in vivo
  patients who temporarily interrupted their dose due to LVEF <50%: Three
[5]; of the 7 MAVACAMTEN patients
  patients whose LVEF reduction to <50% was asymptomatic: 3
[5]; over the 30-week treatment period, placebo 0% (7)
  mean (SD) absolute change from baseline in LVEF: -4% (8)
[5]; patients receiving MAVACAMTEN
  Syncope leading to discontinuation, patients: 0.8%
[5]; sustained throughout the 30-week trial
  onset of reduction in LVOT gradient: reductions in mean resting and provoked (Valsalva) LVOT gradient by Week 4
[5]; while on treatment, N=123
  patients with reversible reductions in LVEF to <50%, number: 7
[5]; while on treatment, placebo 2%
  patients with reversible reductions in LVEF to <50%, percent: 6%
CYP3A4 [6]
  Increase in mavacamten AUCinf: 15%
  Increase in mavacamten Cmax: 52%

From patent US20250360132A1, “METHODS OF ADMINISTERING MYOSIN INHIBITORS” (MYOKARDIA, INC., priority 2022, published 2025)
